Data set [1] concerns patients with chronic GVHD. As to the kind of experiment: Study KD025-213 efficacy, belumosudil 200 mg daily cohort. It counts as in vivo, human. Particulars: for Median time from first response to death or new systemic therapy: 49 responders; for Overall response rate (ORR) through Cycle 7 Day 1 (CR or PR): N=65, 2014 NIH consensus criteria, FDA adjudicated; for Patients with 7-point or greater decrease in Lee Symptom Scale summary score through Cycle 7 Day 1: N=65, exploratory; for Median duration of response: responders.

The nature of data set [2]: Clinical pharmacokinetics of belumosudil. The format is in vivo, human.
Data set [3] is described as follows: Population pharmacokinetics. The arrangement: species or system human. The settings on record: in comparison to healthy volunteers.
A further data set concerns the target CYP3A4 (Homo sapiens, UniProt P08684). Nature of the data set: In vitro metabolism. The format is in vitro ADME.
In a further data set the target is CYP2C8 (Homo sapiens, UniProt P10632). Nature of the data set: In vitro metabolism. It counts as in vitro ADME.
The target in a further data set is ROCK2 (Homo sapiens, UniProt O75116). As to the kind of experiment: ROCK2 inhibition. It counts as biochemical.
For data set [4], the system named is patients with cGVHD. Nature of the data set: Study KD025-208 dose-escalation trial. The format is in vivo, human. The settings on record: 200 mg daily, 200 mg twice daily and 400 mg daily; 54 patients failing 1-3 prior lines.
The subject of data set [5] is patients with cGVHD. As to the kind of experiment: Pooled exposure-response analyses. The arrangement: species or system human. Particulars: 186 patients.
Data set [6] concerns the target T1, UGT1A1 (Homo sapiens, UniProt P22309). Nature of the data set: UGT1A1 inhibition. The format is in vitro ADME. The settings on record: at concentrations that could be achieved clinically.
A short description of a further data set: Photoabsorbance in vitro. It counts as physicochemical.
Another data set can be described thus: Tissue distribution. The settings on record: in vivo.
In data set [7] the target is human ether-à-go-go-related gene (hERG) current (Homo sapiens, UniProt Q12809). As to the kind of experiment: hERG current in vitro. It counts as biochemical.
The test system of a further data set is animals. As to the kind of experiment: Animal toxicology studies. It counts as in vivo.
In the next data set the test system is dogs. As to the kind of experiment: Safety pharmacology studies in dogs. It counts as in vivo, dog.
The nature of data set [8]: Reproductive toxicity studies. The settings on record: in vivo.
Data set [9] relates to adult patients with cGVHD. As to the kind of experiment: Clinical safety, Studies KD025-208 and KD025-213, belumosudil 200 mg daily. The format is in vivo, human.
The conditions of data set [10]: cited from earlier work.
In another data set the test system is ROCK1 isoform. Particulars: in vitro, compared with ROCK2; cited from earlier work.
Another data set relates to mTOR pathway. Particulars: in vitro; cited from earlier work.
The subject of data set [11] is human peripheral blood mononuclear cells. The settings on record: CD3-CD28 stimulation of human PBMC, ex-vivo or in vitro; cited from earlier work.
A further data set deals with STAT3. Particulars: ex-vivo or in vitro; cited from earlier work.
In a further data set the test system is MRTF. Particulars: ex-vivo or in vitro; cited from earlier work.
Another data set has as its system cGVHD mouse models. Particulars: cited from earlier work.
Data set [12] addresses T1, UGT1A1. The settings on record: cited from earlier work.
The subject of another data set is p-glycoprotein. Particulars: cited from earlier work.
In a further data set the test system is BCRP. The settings on record: cited from earlier work.
The subject of a further data set is OATP1B1. The settings on record: cited from earlier work.
The next data set has as its system CYP1A2. Particulars: cited from earlier work.
In a further data set the test system is CYP2C19. The settings on record: cited from earlier work.
In the next data set the target is CYP2D6 (Homo sapiens, UniProt P10635). Particulars: cited from earlier work.
A further data set relates to CYP3A. Particulars: cited from earlier work.
Setting [13] is: N=65, through Cycle 7 Day 1, listed as belumosudil.
The mark [14] stands for this setting: with proton pump inhibitor rabeprazole.
Where [15] appears, read: with strong CYP3A inducer rifampicin.

These results are taken from paper PMC9197942 (Clinical cancer research : an official journal of the …, 2022).

Where two headings read alike, the source gives them in different places.

ROCK2, sequence (O75116 whole entry): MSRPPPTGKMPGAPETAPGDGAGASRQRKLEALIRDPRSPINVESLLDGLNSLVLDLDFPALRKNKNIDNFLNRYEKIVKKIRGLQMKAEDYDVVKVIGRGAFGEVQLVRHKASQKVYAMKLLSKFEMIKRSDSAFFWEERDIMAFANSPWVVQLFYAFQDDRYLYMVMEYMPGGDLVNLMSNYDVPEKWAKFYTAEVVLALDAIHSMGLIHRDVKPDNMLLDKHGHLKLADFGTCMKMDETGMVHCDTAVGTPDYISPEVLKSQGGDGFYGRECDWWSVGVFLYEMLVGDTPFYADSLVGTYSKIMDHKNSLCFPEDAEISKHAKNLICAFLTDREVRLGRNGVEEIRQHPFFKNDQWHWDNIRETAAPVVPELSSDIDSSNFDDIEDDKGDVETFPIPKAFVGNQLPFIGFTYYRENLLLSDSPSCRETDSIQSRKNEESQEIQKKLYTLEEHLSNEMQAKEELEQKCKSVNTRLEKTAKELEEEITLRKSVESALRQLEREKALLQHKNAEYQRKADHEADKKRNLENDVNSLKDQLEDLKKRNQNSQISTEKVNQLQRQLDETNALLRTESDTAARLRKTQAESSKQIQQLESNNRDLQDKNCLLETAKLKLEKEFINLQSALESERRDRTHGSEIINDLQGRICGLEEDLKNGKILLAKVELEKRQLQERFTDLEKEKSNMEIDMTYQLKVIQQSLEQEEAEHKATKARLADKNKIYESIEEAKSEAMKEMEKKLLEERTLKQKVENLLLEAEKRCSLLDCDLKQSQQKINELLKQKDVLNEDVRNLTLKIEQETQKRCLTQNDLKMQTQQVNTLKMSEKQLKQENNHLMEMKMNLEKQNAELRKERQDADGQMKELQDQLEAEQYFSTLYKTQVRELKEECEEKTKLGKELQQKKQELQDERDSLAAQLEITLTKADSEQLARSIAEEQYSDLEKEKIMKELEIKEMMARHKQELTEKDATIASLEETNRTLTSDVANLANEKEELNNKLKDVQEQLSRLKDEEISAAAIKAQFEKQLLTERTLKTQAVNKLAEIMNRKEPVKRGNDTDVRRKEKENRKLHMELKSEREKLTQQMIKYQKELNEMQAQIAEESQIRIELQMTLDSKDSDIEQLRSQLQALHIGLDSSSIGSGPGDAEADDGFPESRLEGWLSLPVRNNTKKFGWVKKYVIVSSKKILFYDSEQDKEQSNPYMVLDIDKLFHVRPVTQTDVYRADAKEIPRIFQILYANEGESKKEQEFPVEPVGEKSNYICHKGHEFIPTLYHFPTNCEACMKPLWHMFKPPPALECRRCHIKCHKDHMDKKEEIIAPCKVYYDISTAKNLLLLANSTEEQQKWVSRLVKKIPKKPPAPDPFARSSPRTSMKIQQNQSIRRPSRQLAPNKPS
T1 sequence (P22309 26-533): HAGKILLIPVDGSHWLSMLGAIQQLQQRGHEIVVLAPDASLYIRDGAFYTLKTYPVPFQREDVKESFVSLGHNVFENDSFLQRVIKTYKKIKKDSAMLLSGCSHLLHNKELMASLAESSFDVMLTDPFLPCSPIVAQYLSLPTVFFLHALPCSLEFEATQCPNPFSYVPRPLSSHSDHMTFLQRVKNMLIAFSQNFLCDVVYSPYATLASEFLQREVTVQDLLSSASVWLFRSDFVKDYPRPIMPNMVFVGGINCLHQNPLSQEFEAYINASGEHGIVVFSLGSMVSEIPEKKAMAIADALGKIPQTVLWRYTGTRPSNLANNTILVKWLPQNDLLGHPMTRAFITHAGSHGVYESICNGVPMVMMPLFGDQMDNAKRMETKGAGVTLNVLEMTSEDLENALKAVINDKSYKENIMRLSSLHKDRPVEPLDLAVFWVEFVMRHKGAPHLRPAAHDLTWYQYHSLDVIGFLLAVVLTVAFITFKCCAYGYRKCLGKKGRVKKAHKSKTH
CYP3A4, sequence (P08684 whole entry): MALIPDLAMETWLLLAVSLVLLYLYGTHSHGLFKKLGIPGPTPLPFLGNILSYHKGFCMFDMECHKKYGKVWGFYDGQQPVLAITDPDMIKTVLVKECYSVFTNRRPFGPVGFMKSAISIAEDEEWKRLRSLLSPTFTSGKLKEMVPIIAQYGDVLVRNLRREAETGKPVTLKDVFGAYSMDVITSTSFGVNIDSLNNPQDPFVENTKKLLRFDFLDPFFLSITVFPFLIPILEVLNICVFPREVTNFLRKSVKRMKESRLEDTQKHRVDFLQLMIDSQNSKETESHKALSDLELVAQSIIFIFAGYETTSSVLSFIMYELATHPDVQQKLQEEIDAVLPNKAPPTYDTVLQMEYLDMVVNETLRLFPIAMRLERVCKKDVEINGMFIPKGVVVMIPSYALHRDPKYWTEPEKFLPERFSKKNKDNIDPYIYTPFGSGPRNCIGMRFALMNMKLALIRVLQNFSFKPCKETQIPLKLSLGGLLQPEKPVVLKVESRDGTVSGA
human ether-à-go-go-related gene (hERG) current, sequence (Q12809 whole entry): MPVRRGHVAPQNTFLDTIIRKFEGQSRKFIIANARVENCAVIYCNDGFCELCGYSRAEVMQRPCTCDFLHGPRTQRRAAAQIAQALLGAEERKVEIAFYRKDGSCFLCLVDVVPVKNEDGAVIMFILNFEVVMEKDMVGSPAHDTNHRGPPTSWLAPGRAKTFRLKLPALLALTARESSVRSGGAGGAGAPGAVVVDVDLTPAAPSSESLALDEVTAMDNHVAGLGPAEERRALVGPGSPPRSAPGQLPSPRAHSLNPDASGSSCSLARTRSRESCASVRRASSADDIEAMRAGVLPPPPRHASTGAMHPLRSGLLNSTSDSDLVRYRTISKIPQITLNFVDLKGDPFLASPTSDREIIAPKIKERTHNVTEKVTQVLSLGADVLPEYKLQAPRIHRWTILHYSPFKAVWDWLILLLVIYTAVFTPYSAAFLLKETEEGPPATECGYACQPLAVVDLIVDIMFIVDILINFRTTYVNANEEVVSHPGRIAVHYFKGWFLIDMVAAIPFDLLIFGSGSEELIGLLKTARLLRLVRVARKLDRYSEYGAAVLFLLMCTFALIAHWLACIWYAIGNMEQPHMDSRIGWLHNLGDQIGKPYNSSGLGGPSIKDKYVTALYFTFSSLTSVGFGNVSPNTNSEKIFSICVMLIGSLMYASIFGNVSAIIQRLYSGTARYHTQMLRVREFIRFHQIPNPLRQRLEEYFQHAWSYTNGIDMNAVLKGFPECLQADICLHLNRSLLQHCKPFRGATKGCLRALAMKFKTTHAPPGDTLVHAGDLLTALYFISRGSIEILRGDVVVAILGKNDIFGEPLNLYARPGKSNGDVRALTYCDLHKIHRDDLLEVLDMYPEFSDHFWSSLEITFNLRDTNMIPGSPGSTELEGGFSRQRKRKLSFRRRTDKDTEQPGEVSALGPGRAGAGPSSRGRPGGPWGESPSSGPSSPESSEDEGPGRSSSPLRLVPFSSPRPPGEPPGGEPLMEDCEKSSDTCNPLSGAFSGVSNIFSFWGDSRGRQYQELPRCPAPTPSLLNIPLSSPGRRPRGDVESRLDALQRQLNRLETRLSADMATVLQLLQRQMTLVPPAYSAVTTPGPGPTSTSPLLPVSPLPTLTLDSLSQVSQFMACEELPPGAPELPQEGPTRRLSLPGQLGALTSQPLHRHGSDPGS
CYP2C8, sequence (P10632 whole entry): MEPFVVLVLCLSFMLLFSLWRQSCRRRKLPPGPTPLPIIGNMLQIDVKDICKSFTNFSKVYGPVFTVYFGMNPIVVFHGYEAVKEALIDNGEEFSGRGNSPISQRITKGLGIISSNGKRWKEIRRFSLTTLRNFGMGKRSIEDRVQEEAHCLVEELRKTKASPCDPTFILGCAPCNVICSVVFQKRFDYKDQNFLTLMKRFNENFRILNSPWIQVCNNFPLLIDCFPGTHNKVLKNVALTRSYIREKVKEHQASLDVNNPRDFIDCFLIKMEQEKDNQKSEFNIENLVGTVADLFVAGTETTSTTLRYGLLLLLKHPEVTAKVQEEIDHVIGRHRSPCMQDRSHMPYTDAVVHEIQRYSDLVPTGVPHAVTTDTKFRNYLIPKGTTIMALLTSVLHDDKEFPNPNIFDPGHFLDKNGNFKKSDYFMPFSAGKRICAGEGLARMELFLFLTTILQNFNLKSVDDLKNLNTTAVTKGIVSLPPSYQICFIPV
CYP2D6, sequence (P10635 whole entry): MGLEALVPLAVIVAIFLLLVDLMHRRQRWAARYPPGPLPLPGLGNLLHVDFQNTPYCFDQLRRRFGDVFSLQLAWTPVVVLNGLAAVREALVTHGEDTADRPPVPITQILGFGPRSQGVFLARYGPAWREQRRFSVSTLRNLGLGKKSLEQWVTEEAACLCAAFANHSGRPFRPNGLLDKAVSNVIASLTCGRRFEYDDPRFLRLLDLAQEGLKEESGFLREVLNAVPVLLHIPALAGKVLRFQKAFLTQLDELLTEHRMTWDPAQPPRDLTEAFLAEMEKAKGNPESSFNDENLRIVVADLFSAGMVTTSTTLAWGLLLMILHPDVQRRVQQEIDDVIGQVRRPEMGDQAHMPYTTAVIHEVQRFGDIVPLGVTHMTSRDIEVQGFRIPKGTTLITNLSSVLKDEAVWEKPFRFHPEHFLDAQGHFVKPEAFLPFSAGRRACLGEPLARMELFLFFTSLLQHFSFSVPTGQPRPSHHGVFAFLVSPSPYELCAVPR

Consider `CC(C)NC(=O)COc1cccc(-c2nc(Nc3ccc4[nH]ncc4c3)c3ccccc3n2)c1` [Belumosudil], for which, in [1], the “Median time from first response to death or new systemic therapy” value is “Not estimable”, the “Overall response rate (ORR) through Cycle 7 Day 1 (CR or PR)” value is given as 49 (75%) (63% - 85%), the “Patients with 7-point or greater decrease in Lee Symptom Scale summary score through Cycle 7 Day 1” value is reported as “(52%) (40% - 65%)” and the “Median duration of response” value is 1.9 months (1.2-2.9 months). For the same compound, in [1] (listed as belumosudil), the “Median time from first response to death or new systemic therapy” value was “not reached”, the “Overall response rate (ORR) through Cycle 7 Day 1 (CR or PR)” value is reported as 75%, the “Patients with 7-point or greater decrease in Lee Symptom Scale summary score through Cycle 7 Day 1” value worked out at 52% and the “Median duration of response” value is 1.9 months. Moreover, in [1] (N=65, through Cycle 7 Day 1), the “Complete Response (CR)” value is 4 (6%) and the “Partial Response (PR)” value is 45 (69%). Besides, in data set [1] (setting [13]), the “Complete Response (CR)” value was 6% and the “Partial Response (PR)” value was determined as 69%. In data set [2] (administration with food), the “Delay of Tmax with food” value amounted to 0.5 h, the “Increase of AUC with food” value turned out to be 2 times and the “Increase of Cmax with food” value was 2.2 times. Besides, the “Excretion in feces unchanged” value in data set [2] (human, in vivo) was 30%. Besides, the Tmax in data set [2] (human, in vivo, oral) came out at 1.26 h. The “Effect of a diagnosis of GVHD on clearance” value in data set [3] is recorded as “decreased clearance”. Further, at CYP3A4, the “Metabolism by CYP3A4” value is “metabolized primarily”. At CYP2C8, the “Metabolism by CYP2C8” value is “to a lesser extent”. For the same compound, on ROCK2, the ROCK2 inhibition entry was “inhibitor”. Further, the “Activity in cGVHD” value with patients with cGVHD [4] was “appeared to be active”. Besides, the “Relationship of response with exposure” value in the data set with patients with cGVHD [5] was “no relationship”. The UGT1A1 inhibition result at UGT1A1 [6] is recorded as “inhibited”. Further, the Photoabsorbance result in the data set “Photoabsorbance in vitro” is recorded as “observed”. Also, the Tissue distribution result in “Tissue distribution” was “distributed to photosensitive areas such as skin and uveal tract”. The hERG current entry in data set [7] is “blocked”. In the data set on animals, the “Target organs of toxicity” value is “toxicities were observed in the gastrointestinal tract, liver, kidney, hemolymphoid system, and reproductive system”. For the same compound, the “Effect on blood pressure” value in the data set with dogs is “lowering of the blood pressure”. In [8], the Embryo-fetal toxicity entry is given as “embryo-fetal toxicity” and the Male fertility entry is on record as “impaired male fertility”. The “Incidence of Viral infection” value in data set [9] (Grades ≥ 3, 200 mg daily, n=83) is recorded as 4%. Moreover, in data set [9] (human, in vivo), the “Adverse reactions leading to dose interruption” value stood at 29%, the “Dose interruption due to diarrhea” value is given as 4% and the “Dose interruption due to infections” value worked out at 11%. In addition, in [10] (setting [14]), the “Reduction of belumosudil Cmax” value is “up to 87%” and the “Reduction of belumosudil overall exposure” value is listed as “up to 80%”. Moreover, in data set [10] (setting [15]), the “Reduction of belumosudil Cmax” value is “approximately 60%” and the “Reduction of belumosudil overall exposure” value is recorded as “approximately 72%”. In addition, the ROCK1 isoform inhibition entry in the data set with ROCK1 isoform is recorded as “with less potency”. Besides, in the data set on mTOR pathway, the mTOR pathway inhibition entry is given as “inhibited”. Moreover, in data set [11], the “Secretion of IL-21 and IL-17” value is listed as “inhibited”. Moreover, the “STAT3 phosphorylation and transcriptional activity” value with STAT3 was “inhibited”. Moreover, the MRTF-mediated gene expression entry in the data set on MRTF was “inhibited”. The “cGVHD-related clinical and histological abnormality scores in the lung and skin” value in the data set on cGVHD mouse models is reported as “improvement”. Further, the UGT1A1 inhibition entry at UGT1A1 [12] is “inhibit”. In addition, the p-glycoprotein inhibition entry in the data set on p-glycoprotein is given as “inhibit”. Besides, the BCRP inhibition result with BCRP is “inhibit”. Also, the OATP1B1 inhibition entry in the data set on OATP1B1 is reported as “inhibit”. Besides, the CYP1A2 inhibition result with CYP1A2 was “inhibit”. Also, the CYP2C19 inhibition entry in the data set on CYP2C19 was “inhibit”. Besides, on CYP2D6, the CYP2D6 inhibition entry was “inhibit”. The “Effect on CYP3A” value in the data set with CYP3A is given as “little effect”.

Take `NC(=O)COc1cccc(-c2nc(Nc3ccc4[nH]ncc4c3)c3ccccc3n2)c1` [KD025m1]: at ROCK2, the ROCK2 inhibition entry is recorded as “inhibit”.

Regarding `O=C(O)COc1cccc(-c2nc(Nc3ccc4[nH]ncc4c3)c3ccccc3n2)c1` [KD025m2], at ROCK2, the ROCK2 inhibition entry is on record as “inhibit”.

One may read the Tmax as the time at which the peak concentration occurs.
